The compounds below were run on Mouse-derived B16F10 melanoma cells (assay: Effect of reducing melanin production in melanocytes (Dooley's method)). Settings: B16-F10, 120 h, medium with compound replaced for three consecutive days, melanin extracted after 5 days, absorbance at 405 nm, read-out: IC50, concentration required to inhibit melanin production in melanocytes to half.
Format: cell-based
Procedure: The effect of inhibiting melanin production of the benzoic acid amide derivative compounds prepared in Examples in melanocytes was measured according to the Dooley's method. Mouse-derived B16F10 melanoma cells acquired from the Korean Cell Line Bank were used as cell lines. DMEM (Cat No. 11995), FBS (Cat No. 16000-044), and antibiotic-antifungal agents (Cat No. 15240-062) necessary for cell culturing were purchased from Invitrogen (GIBCO). The cell lines were cultured under the condition of 37° C. and 5% CO2. The cultured B16F10 cells were detached using 0.05% trypsin-EDTA and inoculated onto a 48-well plate with the same cell number (1×10^4 cells/well). From the next day, the culture medium was replaced with one containing 10 ppm of each compound of Examples for three consecutive days. […] After 5 days, melanin was melted and extracted from the cells by treating with 1 N NaOH at 60° C. for 2 hours, which was quantitated by measuring absorbance at 405 nm. The concentrations (IC50) of Examples required to inhibit melanin production in melanocytes to half were calculated and are given in the following Table 1.

IC50 [µM]	SMILES
0.7	COc1cc(OC)c(-c2ccc(F)cc2)cc1C(=O)NCc1ccc(O)cc1O [Example 6, N-(2,4-dihydroxy-benzyl)-2,4-dimethoxy-5-(4-fluoro-phenyl)-benzoic Acid Amide]
0.9	COc1cc(OC)c(C2=CCCCC2)cc1C(=O)NCc1ccc(O)cc1O [Example 11, 5-cyclohexene-1-yl-N-(2,4-dihydroxy-benzyl)-2,4-dimethoxy-benzoic Acid Amide]
0.8	CCCCc1ccc(O)cc1O [Rucinol, reference compound]

The next lines start with the compound.

SMILES	IC50 [µM]
COc1cc(OC)c(C(C)(C)C)cc1C(=O)NCc1ccc(O)cc1O [Example 1, 5-tert-butyl-N-(2,4-dihydroxy-benzyl)-2,4-dimethoxy-benzoic Acid Amide]	2.3
COc1ccc(-c2cc(C(=O)NCc3ccc(O)cc3O)c(OC)cc2OC)cc1 [Example 5, N-(2,4-dihydroxy-benzyl)-2,4-dimethoxy-5-(4-methoxy-phenyl) Benzoic Acid Amide]	0.7
COc1cc(OC)c(-c2ccc3c(c2)OCO3)cc1C(=O)NCc1ccc(O)cc1O [Example 7, 5-benzo[1,3]dioxol-5-yl-N-(2,4-dihydroxy-benzyl)-2,4-dimethoxy-benzoic Acid Amide]	0.7
COc1cc(OC)c(-c2cc(C)cc(C)c2)cc1C(=O)NCc1ccc(O)cc1O [Example 8, N-(2,4-dihydroxy-benzyl)-2,4-dimethoxy-5-(3,5-dimethyl-phenyl) Benzoic Acid Amide]	1.5
COc1cc(OC)c(-c2ccc(F)c(F)c2)cc1C(=O)NCc1ccc(O)cc1O [Example 9, N-(2,4-dihydroxy-benzyl)-2,4-dimethoxy-5-(3,4-difluoro-phenyl) Benzoic Acid Amide]	0.6
COc1cc(OC)c(-c2cccc([N+](=O)[O-])c2)cc1C(=O)NCc1ccc(O)cc1O [Example 10, N-(2,4-dihydroxy-benzyl)-2,4-dimethoxy-5-(3-nitro-phenyl) Benzoic Acid Amide]	1.3
COc1cc(OC)c(C2CCCCC2)cc1C(=O)NCc1ccc(O)cc1O [Example 12, 5-cyclohexyl-N-(2,4-dihydroxy-benzyl)-2,4-dimethoxy-benzoic Acid Amide]	2.1
